From the CheMixHub ionic liquid set

Experiment: xn = mol fraction of the nth substance listed

O=C([O-])CC(O)(CC(=O)[O-])C(=O)[O-].[NH4+].[NH4+].[NH4+] + CC[n+]1ccn(C)c1.O=S(=O)([O-])O + O
viscosity [mPa·s], 101 kPa
Settings | x1 = 0.0003657, x2 = 0 | x1 = 0.0007347, x2 = 0 | x1 = 0.001087, x2 = 0 | x1 = 0.001443, x2 = 0 | x1 = 0.00179, x2 = 0 | x1 = 0.002235, x2 = 0 | x1 = 0.00271, x2 = 0
293.15 K | 1.022 | 1.043 | 1.063 | 1.083 | 1.102 | 1.127 | 1.153
298.15 K | 0.923 | 0.939 | 0.953 | 0.965 | 0.976 | 0.989 | 1.002
303.15 K | 0.829 | 0.846 | 0.859 | 0.872 | 0.883 | 0.897 | 0.911
308.15 K | 0.75 | 0.768 | 0.782 | 0.795 | 0.807 | 0.822 | 0.837
313.15 K | 0.684 | 0.702 | 0.717 | 0.731 | 0.744 | 0.76 | 0.776

CC[N+](CC)=C(N(C)C)N(C)C.O=S(=O)([N-]S(=O)(=O)C(F)(F)F)C(F)(F)F + CO
101 kPa
Settings | electrical conductivity, 293.2 K [S/m] | viscosity, 293.15 K [mPa·s] | viscosity, 298.15 K [mPa·s] | viscosity, 303.15 K [mPa·s] | viscosity, 308.15 K [mPa·s] | viscosity, 313.15 K [mPa·s] | viscosity, 318.15 K [mPa·s] | viscosity, 323.15 K [mPa·s]
x1 = 0.0003107 | 0.0546 | 0.59 | 0.556 | 0.528 | 0.493 | 0.462 | 0.442 | 0.42
x1 = 0.0006532 | 0.102 | 0.597 | 0.56 | 0.532 | 0.497 | 0.466 | 0.445 | 0.423
x1 = 0.00159 | 0.205 | 0.604 | 0.568 | 0.538 | 0.503 | 0.471 | 0.45 | 0.427
x1 = 0.003264 | 0.334 | 0.619 | 0.58 | 0.55 | 0.514 | 0.481 | 0.459 | 0.435
x1 = 0.006358 | 0.564 | 0.646 | 0.605 | 0.573 | 0.535 | 0.5 | 0.477 | 0.452
x1 = 0.01246 | 0.89 | 0.702 | 0.656 | 0.617 | 0.576 | 0.538 | 0.514 | 0.488
x1 = 0.01888 | 1.17 | 0.766 | 0.715 | 0.672 | 0.627 | 0.585 | 0.554 | 0.525
x1 = 0.02468 | 1.31 | 0.822 | 0.767 | 0.715 | 0.667 | 0.622 | 0.59 | 0.558
x1 = 0.03071 | 1.47 | 0.893 | 0.828 | 0.774 | 0.718 | 0.67 | 0.631 | 0.596
x1 = 0.03685 | 1.59 | 0.963 | 0.891 | 0.827 | 0.77 | 0.719 | 0.675 | 0.636
x1 = 0.04275 | 1.67 | 1.048 | 0.966 | 0.894 | 0.83 | 0.773 | 0.724 | 0.68
x1 = 0.05163 | 1.78 | 1.152 | 1.06 | 0.979 | 0.907 | 0.844 | 0.788 | 0.739
x1 = 0.05988 | 1.83 | 1.267 | 1.162 | 1.07 | 0.989 | 0.918 | 0.856 | 0.801
x1 = 0.07419 | 1.89 | 1.484 | 1.356 | 1.244 | 1.146 | 1.06 | 0.985 | 0.919
x1 = 0.08753 | 1.9 | 1.71 | 1.56 | 1.429 | 1.313 | 1.21 | 1.119 | 1.04

CC(C)[C@H](NC(=O)CN)C(=O)O + CCCCCCCCCCCC[N+](C)(C)Cc1ccccc1.[Cl-] + O
electrical conductivity [S/m], 101 kPa
Settings | 293.15 K | 298.15 K | 303.15 K | 308.15 K | 313.15 K
x1 = 0.0008948, x2 = 0 | 0.00327 | 0.00375 | 0.00427 | 0.00485 | 0.0055
x1 = 0.001799, x2 = 0 | 0.00533 | 0.00608 | 0.0069 | 0.0078 | 0.00879

NC(N)=NCCC[C@H](N)C(=O)O + CCCC[N+](C)(CCCC)CCCC.[Cl-] + O
viscosity [mPa·s], 101.3 kPa
Settings | 293.15 K | 298.15 K | 303.15 K | 308.15 K | 313.15 K
x1 = 0.0003636, x2 = 0.00072 | 1.06 | 0.94 | 0.85 | 0.76 | 0.69
x1 = 0.0003667, x2 = 0.001439 | 1.1 | 0.98 | 0.88 | 0.79 | 0.72
x1 = 0.0007271, x2 = 0.0007198 | 1.07 | 0.95 | 0.86 | 0.78 | 0.7
x1 = 0.0007335, x2 = 0.001438 | 1.11 | 0.99 | 0.89 | 0.8 | 0.73
x1 = 0.001088, x2 = 0.0007195 | 1.08 | 0.97 | 0.87 | 0.79 | 0.71
x1 = 0.001096, x2 = 0.001438 | 1.12 | 1 | 0.9 | 0.82 | 0.75
x1 = 0.001452, x2 = 0.0007192 | 1.1 | 0.98 | 0.88 | 0.8 | 0.72
x1 = 0.001464, x2 = 0.001437 | 1.13 | 1.01 | 0.91 | 0.83 | 0.76
x1 = 0.001809, x2 = 0.001437 | 1.15 | 1.02 | 0.92 | 0.84 | 0.77
x1 = 0.001816, x2 = 0.000719 | 1.11 | 0.99 | 0.89 | 0.81 | 0.73
x1 = 0.002177, x2 = 0.0007187 | 1.12 | 1 | 0.9 | 0.82 | 0.75
x1 = 0.002195, x2 = 0.001436 | 1.16 | 1.04 | 0.94 | 0.85 | 0.78
x1 = 0.002535, x2 = 0.0007185 | 1.13 | 1.02 | 0.92 | 0.84 | 0.76
x1 = 0.00256, x2 = 0.001436 | 1.17 | 1.05 | 0.95 | 0.87 | 0.79

CCCCCC[n+]1ccn(C)c1.[Cl-] + CCCCCO
101 kPa
Settings | viscosity [mPa·s]
293.15 K, x1 = 0.0088 | 4.33
293.15 K, x2 = 0.849 | 10.53
303.15 K, x1 = 0.0042 | 3.1
303.15 K, x1 = 0.0166 | 3.41
303.15 K, x2 = 0.1514 | 1675
313.15 K, x1 = 0.0042 | 2.37
313.15 K, x2 = 0.2971 | 259.6
313.15 K, x2 = 0.8012 | 8.12
323.15 K, x2 = 0 | 783
323.15 K, x2 = 0.8012 | 6.29
333.15 K, x2 = 0.7018 | 9.13

CC(=O)[O-].Cn1cc[n+](CCO)c1 + O
100 kPa
Settings | viscosity [mPa·s]
293.15 K, x1 = 0.9003 | 93.9
298.15 K, x1 = 0.8317 | 41.2
298.15 K, x1 = 0.8712 | 56.8
303.15 K, x1 = 0.8317 | 32
303.15 K, x1 = 0.8712 | 43.6
308.15 K, x1 = 0.8317 | 25.4
308.15 K, x1 = 0.8818 | 36.7
313.15 K, x1 = 0.8632 | 25.8
313.15 K, x1 = 0.8712 | 26.6
313.15 K, x1 = 0.8818 | 29
323.15 K, x1 = 0.8818 | 19.3
328.15 K, x1 = 0.8712 | 14.72
333.15 K, x1 = 0.8818 | 13.46
333.15 K, x1 = 0.9003 | 14.78

CC[N+](CC)(CC)CC.[Br-] + CCCCCCCCCCCCCCn1cc[n+](C)c1.[Br-] + O
electrical conductivity [S/m], 101 kPa, frequency 0.001 MHz
Settings | 298.15 K | 308.15 K | 318.15 K
x2 = 0, x1 = 1.802e-05 | 0.0115 | 0.0142 | 0.0177
x2 = 0, x1 = 3.604e-05 | 0.0198 | 0.024 | 0.0294
x2 = 0, x1 = 9.009e-05 | 0.0417 | 0.0509 | 0.0613

CCCC[n+]1ccccc1.F[B-](F)(F)F + CCCC[n+]1ccccc1.O=S(=O)([N-]S(=O)(=O)C(F)(F)F)C(F)(F)F
101 kPa, x2 = 0
Settings | viscosity [mPa·s]
303.15 K | 123.6
353.15 K | 17.7

[Cl][Zn][Cl] + CCCC[n+]1ccn(C)c1.[Cl-]
303.15 K, 100 kPa
Settings | electrical conductivity [S/m]
x2 = 0.333 | 0.00188
x2 = 0.5 | 0.0237
x2 = 0.666 | 0.0171
